Data from patent publication US9662320B2, “Antagonists of the cannabinoid receptor CB1 for use in the treatment of diseases associated with neuronal dendritic abnormalities” (Universitat Pompeu Fabra, priority 2013, dated 2017).

System: Fmr1^−/y mice
Assay: Dendritic spine density and morphology analysis in Fmr1−/y mice treated with rimonabant
Assay type: in vivo
Details: 1 mg/kg, i.p., 7 d
Protocol: Fmr1 knockout (KO) mice in FVB background (Fmr1 KO, FVB.129P2-Pde6b^+ Tyr^c-ch Fmr1^tm1Cgr/J) and wild-type mice (WT, FVB.129P2-Pde6b^+ Tyr^c-ch/AntJ) were purchased from The Jackson Laboratory and crossed to obtain Fmr1^−/y and WT littermates. All experimental animals were bred in-house at the Barcelona Biomedical Research Park (PRBB) Animal Facility. Fmr1^−/y and WT mice were used at 12 to 16 weeks of age. Mice were housed four per cage in a temperature (21±1° C.) and humidity (55±10%) controlled environment. Food and water were available ad libitum. All the experiments were performed during the light phase of a 12 h light/dark cycle (lights on at 8 am and off at 8 pm). Animals were handled for one week before starting the experiments. All animal procedures followed the standard ethical guidelines (European Communities Directive […]) and were approved by the local ethical committee (Comitè Èlic d'Experimentació Animal-Parc de Recerca Biomèdica de Barcelona, CEEA-PRBB). The PRBB has also the Animal Welfare Assurance (#A5388-01, IACUC Approval Date Jun. 8, 2009) granted by the Office of Laboratory Animal Welfare (OLAW) of the National Institutes of Health (USA). All behavioral tests were performed by researchers blind to the different experimental groups.
Rimonabant was obtained from Sanofi-Aventis (Sanofi-Aventis Recherche). Rimonabant was injected intraperitoneally (i.p.) in a volume of 10 ml per kg.
Dendritic spine analysis was performed as previously described (Lee K W. et al., Proc Natl Acad Sci USA. 2006; 103(9): 3399-404) in mice that received a chronic administration of rimonabant (1 mg kg^−1, 7 d) or its vehicle. Brains were extracted after perfusion (4% PFA in PB) 3 h after the last administration of rimonabant or vehicle solution on the seventh day of treatment. […]
Results are reported as mean±s.e.m. The experiments were evaluated by one-way analysis of variance (ANOVA) followed by the Dunnett's post-hoc test when required. […]

[1] = compared to vehicle-treated Fmr1^−/y mice

## Cc1c(C(=O)NN2CCCCC2)nn(-c2ccc(Cl)cc2Cl)c1-c1ccc(Cl)cc1 [rimonabant, 5-(4-Chlorophenyl)-1-(2,4-dichloro-phenyl)-4-methyl-N-(piperidin-1-yl)-1H-pyrazole-3-carboxamide]
CA1 field of the hippocampus
  dendritic spine density of CA1 pyramidal neurons: normalized
[1]
  mushroom/wide (mature) spines: increase
  thin/stubby (immature) spines: decrease
